According to patent US20130143929A1, “FUNGICIDAL IMIDAZOLES” (EI DU PONT DE NEMOURS AND COMPANY, priority 2010, published 2013):
Marks after values point to notes of the source that are not given here.

What was measured:
Format in all cases: in vivo
[1] = system: Botrytis cinerea (the causal agent of tomato Botrytis); experiment: Test C: tomato Botrytis, preventive spray on tomato seedlings, visual disease rating; conditions: tomato Botrytis, preventive spray on tomato seedlings
Method in brief: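 Test suspension (acetone/water with 250 ppm Trem 014; 200 ppm equivalent to 800 g/ha) sprayed to run-off on tomato seedlings; B. cinerea spores inoculated next day. After 48 h saturated humidity at 20° C then 3 days at 24° C, disease rated visually as % control relative to untreated controls (0–100).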

[2] = system: Septoria tritici (the causal agent of wheat leaf blotch); experiment: Test B: wheat leaf blotch, preventive spray on wheat seedlings, visual disease rating; conditions: wheat leaf blotch, preventive spray on wheat seedlings
Method in brief: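 Wheat seedlings sprayed to run-off with compound suspension (acetone/water with 250 ppm Trem 014; 200 ppm ≈ 800 g/ha, some at 40 ppm), inoculated next day with Septoria tritici spores. 48 h saturated humidity at 24 °C, then 19 days at 20 °C; visual rating, 100 = full control.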

[3] = system: Puccinia recondite f. sp. tritici (the causal agent of wheat leaf rust); experiment: Test A: wheat leaf rust, preventive spray on wheat seedlings, visual disease rating; conditions: wheat leaf rust, preventive spray on wheat seedlings
Method in brief: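 Wheat seedlings were sprayed to run-off with compound suspended in acetone/water containing 250 ppm Trem 014 (200 ppm ≈ 800 g/ha; some at 40 ppm). Puccinia recondite spores were inoculated the next day. Plants were held 24 h saturated at 20° C, then 7 days at 20° C, and disease control was rated visually on a 0–100 scale against controls.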

[4] = system: Blumeria graminis f. sp. tritici (also known as Erysiphe graminis f. sp. tritici, the causal agent of wheat powdery mildew); experiment: Test D: wheat powdery mildew, preventive spray on wheat seedlings, visual disease rating; conditions: wheat powdery mildew, preventive spray on wheat seedlings
Method in brief: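 Compound suspended in acetone/water (50/50) with 250 ppm Trem 014 and sprayed to run-off on wheat seedlings (200 ppm ≈ 800 g/ha), then inoculated next day with spore dust. Disease rated visually after 8 days at 20 °C as % control relative to untreated plants (0-100).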

[5] = asterisk: 40 ppm test suspension
[6] = no asterisk (standard test suspension concentration, not 40 ppm)

SMILES	Test C rating (100 = 100% disease control, 0 = no disease control relative to the controls) [1, 5]	Test B rating (100 = 100% disease control, 0 = no disease control relative to the controls) [2, 5]	Test A rating (100 = 100% disease control, 0 = no disease control relative to the controls) [3, 5]	Test D rating (100 = 100% disease control, 0 = no disease control relative to the controls) [4, 5]	Test C rating (100 = 100% disease control, 0 = no disease control relative to the controls) [1, 6] [%]	Test B rating (100 = 100% disease control, 0 = no disease control relative to the controls) [2, 6] [%]	Test A rating (100 = 100% disease control, 0 = no disease control relative to the controls) [3, 6] [%]	Test D rating (100 = 100% disease control, 0 = no disease control relative to the controls) [4, 6] [%]
Cc1nc(Br)c(C(O)c2ccc(Cl)cc2Cl)n1-c1c(F)cccc1Cl (stereo not drawn) [compound 201]	99* %	100* %	100* %	89* %	–	–	–	–
Cc1nc(Br)c(C(O)c2ccc(Cl)cc2Cl)n1-c1c(F)cccc1F (stereo not drawn) [compound 202]	100* %	100* %	98* %	82* %	–	–	–	–
COc1cc(OC)c(Br)c(-n2c(C)nc(Br)c2C(O)c2c(F)cc(F)cc2F)c1 (stereo not drawn) [compound 203]	–	–	–	–	66	30	41	0
Cc1nc(Cl)c(C(O)c2c(F)cc(F)cc2F)n1-c1ccc(Cl)cc1 (stereo not drawn) [compound 204]	–	–	–	–	45	75	19	0
Cc1nc(Cl)n(-c2c(F)cccc2Br)c1C(O)c1ccc(F)cc1F (stereo not drawn) [compound 205]	100* %	100* %	99* %	93* %	–	–	–	–
Cc1nc(Cl)n(-c2c(F)cccc2Cl)c1C(O)c1ccc(F)cc1Cl (stereo not drawn) [compound 206]	100* %	100* %	100* %	93* %	–	–	–	–
Cc1nc(Cl)n(-c2c(F)cccc2Br)c1C(O)c1ccc(F)cc1Cl (stereo not drawn) [compound 207]	100* %	100* %	100* %	81* %	–	–	–	–
Cc1cc(F)ccc1C(O)c1c(C)nc(Cl)n1-c1c(F)cccc1Cl (stereo not drawn) [compound 208]	99* %	100* %	100* %	81* %	–	–	–	–
Cc1cc(F)ccc1C(O)c1c(C)nc(Cl)n1-c1c(F)cccc1Br (stereo not drawn) [compound 209]	100* %	100* %	99* %	42* %	–	–	–	–
COc1ccc(C(O)c2c(C)nc(Cl)n2-c2c(F)cccc2Cl)c(F)c1 (stereo not drawn) [compound 210]	100* %	100* %	–	99* %	–	–	100	–
COc1ccc(C(O)c2c(C)nc(Cl)n2-c2c(F)cccc2Br)c(F)c1 (stereo not drawn) [compound 211]	100* %	100* %	100* %	98* %	–	–	–	–
COc1ccc(C(O)c2c(C)nc(Cl)n2-c2c(F)cccc2Cl)c(C)c1 (stereo not drawn) [compound 212]	100* %	100* %	100* %	97* %	–	–	–	–
COc1ccc(C(O)c2c(C)nc(Cl)n2-c2c(F)cccc2Br)c(C)c1 (stereo not drawn) [compound 213]	100* %	100* %	100* %	91* %	–	–	–	–
COc1ccc(-n2c(C(O)c3ccc(F)cc3Cl)cnc2C)c(OC)c1 (stereo not drawn) [compound 214]	0* %	0* %	0* %	0* %	–	–	–	–
COc1ccc(C(O)c2c(Br)nc(C)n2-c2ccc(F)cc2Cl)c(F)c1 (stereo not drawn) [compound 302]	100* %	100* %	100* %	64* %	–	–	–	–
COc1ccc(C(O)c2cnc(C)n2-c2ccc(F)cc2Br)c(F)c1 (stereo not drawn) [compound 303]	8* %	43* %	74* %	0* %	–	–	–	–
Cc1ncc(C(O)c2c(F)cc(Cl)cc2F)n1-c1ccc(F)cc1Br (stereo not drawn) [compound 305]	21* %	17* %	9* %	0* %	–	–	–	–
COc1ccc(C(O)c2c(Cl)nc(C)n2-c2ccc(F)cc2F)c(F)c1 (stereo not drawn) [compound 306]	97* %	100* %	100* %	0* %	–	–	–	–
COc1ccc(C(O)c2c(Cl)nc(C)n2-c2ccc(F)cc2F)c(Cl)c1 (stereo not drawn) [compound 307]	0* %	100* %	99* %	0* %	–	–	–	–
Cc1nc(Br)c(C(O)c2c(F)cc(Cl)cc2F)n1-c1ccc(F)cc1Br (stereo not drawn) [compound 308]	100* %	100* %	100* %	93* %	–	–	–	–
Cc1nc(Br)c(C(O)c2ccc(F)cc2Br)n1-c1ccc(F)cc1F (stereo not drawn) [compound 309]	65* %	100* %	100* %	64* %	–	–	–	–
